For the assay, the target named is T1, human V1a receptor (Homo sapiens, UniProt P37288).
T1 construct: expressed in transfected cells; host or cells: HEK293 cells, transiently transfected; cell membranes used
In words: human V1a receptor binding study (3H-Vasopressin SPA, membranes of transfected HEK293 cells). As to conditions: membranes of HEK293 cells transiently transfected with human V1a receptor, Ki by Cheng-Prussoff equation, read-out: pKi(hV1a) (converted). On the procedure:
The human V1a receptor was cloned by RT-PCR from total human liver RNA. The coding sequence was subcloned in an expression vector after sequencing to confirm the identity of the amplified sequence. […] Cell membranes were prepared from HEK293 cells transiently transfected with the expression vector and grown in 20 liter fermenters with the following protocol.
50 g of cells were resuspended in 30 ml freshly prepared ice cold Lysis buffer (50 mM HEPES, 1 mM EDTA, 10 mM MgCl2 adjusted to pH=7.4+complete cocktail of protease inhibitor (Roche Diagnostics)). Homogenized with Polytron for 1 min and sonicated on ice for 2×2 minutes at 80%, intensity (Vibracell sonicator). The preparation was centrifuged 20 min at 500 g at 4° C., the pellet was discarded and the supernatant centrifuged 1 hour at 43,000 g at 4° C. (19,000 rpm). The pellet was resuspended in 12.5 ml Lysis buffer+12.5 ml Sucrose 20% and homogenized using a Polytron for 1-2 min. The protein concentration was determined by the Bradford method and aliquots were stored at −80° C. until use. For binding studies 60 mg Yttrium silicate SPA beads (Amersham) were mixed with an aliquot of membrane in binding buffer (50 mM Tris, 120 mM NaCl, 5 mM KCl, 2 mM CaCl2, 10 mM MgCl2) for 15 minutes with mixing. 50 ul of bead/membrane mixture was then added to each well of a 96 well plate, followed by 50 ul of 4 nM 3H-Vasopressin (American Radiolabeled Chemicals). For total binding measurement 100 ul of binding buffer were added to the respective wells, for non-specific binding 100 ul of 8.4 mM cold vasopressin and for compound testing 100 ul of a serial dilution of each compound in 2% DMSO. The plate was incubated 1 h at room temperature, centrifuged 1 min at 1000 g and counted on a Packard Top-Count. Non-specific binding counts were subtracted from each well and data was normalized to the maximum specific binding set at 100%. To calculate an IC 50 the curve was fitted using a non-linear regression model (XLfit) and the Ki was calculated using the Cheng-Prussoff equation.

The structures appear in SMILES notation.

T1 sequence (P37288 whole entry): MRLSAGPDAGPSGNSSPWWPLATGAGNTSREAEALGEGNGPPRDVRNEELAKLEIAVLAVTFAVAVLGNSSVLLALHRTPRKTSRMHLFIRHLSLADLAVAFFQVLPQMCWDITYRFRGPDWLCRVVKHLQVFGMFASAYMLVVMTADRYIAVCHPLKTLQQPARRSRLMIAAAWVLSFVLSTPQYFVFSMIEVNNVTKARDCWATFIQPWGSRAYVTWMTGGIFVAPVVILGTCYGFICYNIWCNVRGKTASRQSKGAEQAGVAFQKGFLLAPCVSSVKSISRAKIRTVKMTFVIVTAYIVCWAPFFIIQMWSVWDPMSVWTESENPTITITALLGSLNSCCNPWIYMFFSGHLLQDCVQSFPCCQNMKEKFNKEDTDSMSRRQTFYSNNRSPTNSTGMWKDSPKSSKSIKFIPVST

As to `N#CCn1c(C(=O)N2CCC3(CC2)CC(=O)Nc2ccc(Br)cc23)cc2cc(Cl)ccc21` [Example 7, {2-[(6′-Bromo-2′-oxo-2′,3′-dihydro-1H,1′H-spiro[piperidine-4,4′-quinolin]-1-yl)carbonyl]-5-chloro-1H-indol-1-yl}acetonitrile], the Ki is 47.3 nM. The figure for `Cn1c(C(=O)N2CCC3(CC2)OC(=O)Nc2ccccc23)cc2cc(Cl)ccc21` [Example 14, 1′-[(5-Chloro-1-methyl-1H-indol-2-yl)carbonyl]spiro[3,1-benzoxazine-4,4′-piperidin]-2(1H)-one] is 29.9 nM; for `N#CCn1c(C(=O)N2CCC3(CC2)OC(=O)Nc2ccccc23)cc2ccccc21` [Example 15, {2-[(2-Oxo-1,2-dihydro-1′H-spiro[3,1-benzoxazine-4,4′-piperidin]-1′-yl)carbonyl]-1H-indol-1-yl}acetonitrile] it is 60.3 nM; for `N#CCn1c(C(=O)N2CCC3(CC2)OC(=O)Nc2ccccc23)cc2cc(Cl)ccc21` [Example 16, {5-Chloro-2-[(2-oxo-1,2-dihydro-1′H-spiro[3,1-benzoxazine-4,4′-piperidin]-1′-yl)carbonyl]-1H-indol-1-yl}acetonitrile] it is 10.6 nM.
